The NIST ThermoML archive (doi:10.1021/acs.jced.8b00199)

Experiment: molar heat capacity at constant pressure
Settings: Liquid, Flow calorimetry

CCCCCCCCCC(=O)OCC [ethyl decanoate]
Settings | molar heat capacity at constant pressure [J/K/mol]
294 K, 100 kPa | 400.39
294 K, 3080 kPa | 399.98
294 K, 6090 kPa | 399.53
294 K, 8970 kPa | 399.07
294 K, 12120 kPa | 398.72
294.1 K, 14870 kPa | 398.28
294.1 K, 17910 kPa | 397.82
294.1 K, 21090 kPa | 397.38
294.1 K, 24040 kPa | 396.93
304 K, 130 kPa | 406.09
304 K, 3030 kPa | 405.62
304 K, 6160 kPa | 405.12
304 K, 9030 kPa | 404.66
304 K, 11950 kPa | 404.19
304 K, 15090 kPa | 403.69
304 K, 17870 kPa | 403.23
304.1 K, 21100 kPa | 402.75
304.1 K, 24050 kPa | 402.24
313.9 K, 110 kPa | 411.45
313.9 K, 2920 kPa | 410.92
313.9 K, 5990 kPa | 410.45
313.9 K, 9080 kPa | 409.95
314 K, 11910 kPa | 409.43
314 K, 15030 kPa | 408.93
314 K, 18090 kPa | 408.41
314 K, 21080 kPa | 407.89
314 K, 24110 kPa | 407.34
323.8 K, 150 kPa | 416.54
323.9 K, 3040 kPa | 416.03
323.9 K, 5930 kPa | 415.53
323.9 K, 9070 kPa | 415.03
323.9 K, 11980 kPa | 414.54
323.9 K, 15050 kPa | 414.03
324 K, 18050 kPa | 413.54
324 K, 21210 kPa | 413.06
324 K, 24030 kPa | 412.57
333.8 K, 120 kPa | 423.19
333.8 K, 2960 kPa | 422.7
333.8 K, 5990 kPa | 422.28
333.8 K, 9040 kPa | 421.77
333.9 K, 12030 kPa | 421.17
333.9 K, 14940 kPa | 420.66
333.9 K, 18050 kPa | 420.15
333.9 K, 21100 kPa | 419.65
334 K, 24050 kPa | 419.11
343.7 K, 150 kPa | 429.52
343.7 K, 3000 kPa | 429.02
343.7 K, 6190 kPa | 428.5
343.8 K, 8990 kPa | 427.96
343.8 K, 12100 kPa | 427.46
343.8 K, 14910 kPa | 426.93
343.8 K, 17990 kPa | 426.4
343.8 K, 21010 kPa | 426.07
343.9 K, 23970 kPa | 425.54
353.7 K, 110 kPa | 435.96
353.7 K, 2980 kPa | 435.41
353.7 K, 6020 kPa | 434.91
353.7 K, 8990 kPa | 434.4
353.8 K, 11920 kPa | 433.87
353.8 K, 14940 kPa | 433.36
353.8 K, 17960 kPa | 432.85
353.8 K, 21070 kPa | 432.33
353.9 K, 23980 kPa | 431.81

CCCCCCCC(=O)OCC [ethyl octanoate]
Settings | molar heat capacity at constant pressure [J/K/mol]
294 K, 160 kPa | 339.59
294 K, 3020 kPa | 339.17
294.1 K, 5960 kPa | 338.74
294.1 K, 9040 kPa | 338.3
294.1 K, 12020 kPa | 337.9
294.1 K, 14980 kPa | 337.54
294.1 K, 17990 kPa | 337.13
294.1 K, 21060 kPa | 336.71
294.1 K, 23980 kPa | 336.29
303.7 K, 2940 kPa | 344.3
303.7 K, 6070 kPa | 343.83
303.8 K, 8950 kPa | 343.35
303.8 K, 12020 kPa | 342.9
303.9 K, 15040 kPa | 342.5
304 K, 18130 kPa | 342.09
304 K, 21050 kPa | 341.67
304 K, 24030 kPa | 341.18
305.6 K, 160 kPa | 344.76
314.3 K, 170 kPa | 350.6
314.3 K, 3140 kPa | 350.17
314.3 K, 6130 kPa | 349.71
314.4 K, 9110 kPa | 349.29
314.4 K, 12100 kPa | 348.89
314.4 K, 15030 kPa | 348.53
314.5 K, 18310 kPa | 348.11
314.5 K, 20910 kPa | 347.72
314.5 K, 24100 kPa | 347.25
323.8 K, 130 kPa | 355.82
323.8 K, 3030 kPa | 355.4
323.8 K, 6160 kPa | 354.96
323.8 K, 21030 kPa | 352.89
323.9 K, 9300 kPa | 354.54
323.9 K, 12120 kPa | 354.09
323.9 K, 15230 kPa | 353.71
323.9 K, 18110 kPa | 353.28
323.9 K, 24100 kPa | 352.47
333.7 K, 110 kPa | 360.49
333.7 K, 3060 kPa | 360.06
333.7 K, 6010 kPa | 359.65
333.8 K, 9110 kPa | 359.17
333.8 K, 11920 kPa | 358.75
333.8 K, 15070 kPa | 358.37
333.8 K, 18080 kPa | 357.9
333.9 K, 21120 kPa | 357.47
333.9 K, 24000 kPa | 357.06
343.5 K, 130 kPa | 365.32
343.5 K, 2950 kPa | 364.93
343.5 K, 6040 kPa | 364.48
343.5 K, 8990 kPa | 364.02
343.6 K, 12070 kPa | 363.6
343.7 K, 15050 kPa | 363.15
343.8 K, 18070 kPa | 362.7
343.8 K, 21010 kPa | 362.3
343.8 K, 24090 kPa | 361.84
353.6 K, 130 kPa | 370.06
353.6 K, 3030 kPa | 369.66
353.6 K, 6060 kPa | 369.24
353.7 K, 8990 kPa | 368.8
353.7 K, 11900 kPa | 368.4
353.8 K, 15040 kPa | 367.99
353.9 K, 18020 kPa | 367.57
354 K, 20960 kPa | 367.14
354 K, 24110 kPa | 366.72
